Laboratory results taken from patent EP0007294A2, “Membrane stabilizing compounds having beta-receptor blocking activity, their preparation, method for treatment of arrhythmic conditions, and pharmaceutical preparations containing same” (priority 1978, dated 1980).
Where two headings read alike, the source gives them in different places.

How the values were obtained:
[1] = system: ouabain-induced arrhythmias; experiment: Ouabain-induced arrhythmias in anesthetized guinea-pigs; format: in vivo; conditions: for A-A EFFECT IN NUMBER OF ANIMALS: animals with antiarrhythmic effect / animals tested; for LOWEST FREQUENCY: frequency of ventricular premature beats after test solution; for ASYSTOLE: time of asystole under continued ouabain; for V-FIB: time of ventricular fibrillation under continued ouabain
Experimental: Guinea-pigs of either.sex (300-400 g) were anesthetized with urethane 1,4 g/kg i.p. and tracheotomized. ECG, lead II was picked up with needle electrodes and was registered continuously throughout the experiment. Two i.v. catheters were inserted: one for the administration of ouabain, the other for the test solution.
The experimental design for the study of antiarrhythmic activities is schematically shown in the head of Table 2. The arrhythmia was induced by automatic infusion of ouabain, 18 µg/kg/60" every two minutes for twelve minutes and thereafter 9 µg/kg/30" every two minutes throughout the whole experiment and the infusion was not stopped until asystole occurred. As soon as the frequency of ventricular premature beats (VPB) had passed 50 per cent, the test solution was given i.v. (0,2 ml/min) during 2 min. (see head of Table 2).

[2] = Conscious dogs with ligation of a coronary artery according to Harris: ectopics and convulsions; format: in vivo; conditions: in vivo
Source text: (§1) Male beagle dogs, 7-13 kg, undergo two days prior to the test a surgical ligation of a coronary artery. On the day of the test the conscious dog is secured in a canvas sling in a standing position and given increasing doses of the test compounds by intravenous administration. ECG, blood pressure etc are monitored and attention is paid to all CNS-effects. The dogs have almost 100 percent of ectopics prior to administration of the compound to be tested. Effects of the test drug on the frequency of ectopics are calculated from ECG. The accumulative end doses giving 50% and 90% reduction of ectopics as well as the ED50 values which give convulsions (side-effect) are measured and given below in Table 3. The value for convulsions is a mean value for 3-5 dogs.
(§2) x) The value given is the final value in a series of doses 0.5 + 1 + 2 + 4 + 8 mg/kg i.v. giving 50% reduction of ectopics. 30 min interval between doses.
(§3) Table 3: Antiarrythmic effect and CNS-effects of four β-receptor blockers, a membrane stabilizer, and ten new compounds with combined β-blocking and membrane stabilizing effect.

ectopics = experiment: as above; format: in vivo; conditions: Canis lupus familiaris, iv.; for ED50: accumulative end dose giving 50% reduction of ectopics, read-out: Conscious dog Harris ligation Ectopics -50%; for ED90: accumulative end dose giving 90% reduction of ectopics, read-out: Conscious dog Harris ligation Ectopics -90%
Source text: as §1, §2, §3

[3] = system: chloroform-induced ventricular arrhythmias; experiment: Chloroform-induced ventricular arrhythmias (fibrillation) in mice, intraperitoneal dose; conditions: for Number of Animals Protected: protected against CHCl3-induced ventricular fibrillation
Source text: Mice were given an intraperitoneal dose of the test compound. Twenty minutes after dose, they were suffocated in chloroform vapor.- When the animals stopped breathing, the chest was opened to inspect for fibrillation. If the heart was not fibrillating, it was prodded.
Signs of CNS toxicity were noted during the 20-minute interval between dosing and challenge.
"Protected" means number of animals protected against CHC13- induced ventricular fibrillation.

[4] = Alternative chloroform test on mice: ventricular tachycardia inhibition and ataxia; format: in vivo; conditions: mouse, in vivo
Experimental: (§4) In an alternative chloroform test on mice the ventricular tachycardia inhibition by the test compounds are observed. Thereby the test solution is given subcutaneous and the animal is observed for CNS-effects for 20 min. The mouse is put into a chamber with chloroform until it stops breathing (approx 30 sec.). The animal is then secured on a cork-board and ECG is monitored. If the ventricular rythm is less than 520 beats per min., the animal was protected against ventricular tachycardia. Groups of 10 animals were tested for each dose-level'and the ED50-values have been calculated therefrom. During the test the side-effect ataxia (incordination of movements) is observed.
(§5) In Table 5, as shown, the new compounds tested exerted antiarrhythmic effects also in this te-st.

[5] = system: chloroform induced ventricular tachy-cardia; experiment: as above; format: in vivo; conditions: Mus musculus; sc.; mice, chloroform; groups of 10 animals per dose-level
Experimental: as §4, §5

[6] = dose 100 mg/kg intraperitoneal, 10 treated

Row | Structure (SMILES) | A-A EFFECT IN NUMBER OF ANIMALS ([1]; dose 0.1 mg/kg i.v.) | A-A EFFECT IN NUMBER OF ANIMALS ([1]; dose 0.3 mg/kg i.v.) | LOWEST FREQUENCY ([1]; dose 0.1 mg/kg i.v.) [%] | LOWEST FREQUENCY ([1]; dose 0.3 mg/kg i.v.) [%] | ASYSTOLE ([1]; dose 0.1 mg/kg i.v.) [min] | ASYSTOLE ([1]; dose 0.3 mg/kg i.v.) [min] | V-FIB ([1]; dose 0.1 mg/kg i.v.) [min] | V-FIB ([1]; dose 0.3 mg/kg i.v.) [min] | ED50 (ectopics) [mg/kg] | ED90 (ectopics) [mg/kg] | Number of Animals Dead [3, 6] | Number of Animals Protected [3, 6] | ED50 [5] [mg/kg] | also measured
1 | CC(C)NCC(O)COc1cccc2ccccc12 (centres unmarked) [Propranolol] | 6/7 | 6/6 | 9±5 | 4±2 | 35 ± 4 | 32 ± 5 | 30 ± 5 | 27 ± 6 | 1 | 3 | 0 | 10 | 0.6 | A-A EFFECT IN NUMBER OF ANIMALS ([1]; dose 0.03 mg/kg i.v.): 6/7; LOWEST FREQUENCY ([1]; dose 0.03 mg/kg i.v.): 29±5%; ASYSTOLE ([1]; dose 0.03 mg/kg i.v.): 29 ± 2 min; V-FIB ([1]; dose 0.03 mg/kg i.v.): 21 ± 3 min; TD50 ([2]; iv., conscious dog, mean value for 3-5 dogs, read-out: ED50 Convulsive): 8 mg/kg; Number of Animals Convulsive ([3]; dose 100 mg/kg intraperitoneal, 10 treated, convulsions within 20 minutes after dosing): 10; Number of Animals LRR ([3]; dose 100 mg/kg intraperitoneal, 10 treated, loss of righting reflex): 1; TD50 at 20 min ([4]; sc., mice, observed for 20 min, read-out: Ataxia ED50): > 1 mg/kg
2 | COCCc1ccc(OCC(O)CNCCc2ccc(O)cc2)cc1 (centres unmarked) [Ex. 2] | 7/7 | 6/6 | 25±7 | 5±2 | 27 ± 3 | 35 ± 3 | 20 ± 2 | 29 ± 2 | 4 | 8 | 0 | 8 | 3 | TD50 ([2]; dog, iv): 8 mg/kg; Number of Animals Convulsive ([3]; mouse, in vivo, ip, 100 mg/kg): 0; Number of Animals LRR ([3]; mouse, in vivo, ip, 100 mg/kg): 0; TD50 at 20 min ([4]; sc): > 13 mg/kg
